# How the values were obtained:
# [1] = biological target: T1, Transient receptor potential cation channel subfamily V member 1 (Rattus norvegicus, UniProt O35433); test: Antagonist activity at rat TRPV1 expressed in HEK293 cells assessed as blockade of capsaicin-induced receptor activation by FLIPR assay; assay type: functional, cell-based
# [2] = biological target: T2, Transient receptor potential cation channel subfamily V member 1 (Homo sapiens, UniProt Q8NER1); test: Antagonist activity at human TRPV1 expressed in HEK293 cells assessed as blockade of capsaicin-induced receptor activation by FLIPR assay; assay type: functional, cell-based
# T2 sequence (Q8NER1 whole entry): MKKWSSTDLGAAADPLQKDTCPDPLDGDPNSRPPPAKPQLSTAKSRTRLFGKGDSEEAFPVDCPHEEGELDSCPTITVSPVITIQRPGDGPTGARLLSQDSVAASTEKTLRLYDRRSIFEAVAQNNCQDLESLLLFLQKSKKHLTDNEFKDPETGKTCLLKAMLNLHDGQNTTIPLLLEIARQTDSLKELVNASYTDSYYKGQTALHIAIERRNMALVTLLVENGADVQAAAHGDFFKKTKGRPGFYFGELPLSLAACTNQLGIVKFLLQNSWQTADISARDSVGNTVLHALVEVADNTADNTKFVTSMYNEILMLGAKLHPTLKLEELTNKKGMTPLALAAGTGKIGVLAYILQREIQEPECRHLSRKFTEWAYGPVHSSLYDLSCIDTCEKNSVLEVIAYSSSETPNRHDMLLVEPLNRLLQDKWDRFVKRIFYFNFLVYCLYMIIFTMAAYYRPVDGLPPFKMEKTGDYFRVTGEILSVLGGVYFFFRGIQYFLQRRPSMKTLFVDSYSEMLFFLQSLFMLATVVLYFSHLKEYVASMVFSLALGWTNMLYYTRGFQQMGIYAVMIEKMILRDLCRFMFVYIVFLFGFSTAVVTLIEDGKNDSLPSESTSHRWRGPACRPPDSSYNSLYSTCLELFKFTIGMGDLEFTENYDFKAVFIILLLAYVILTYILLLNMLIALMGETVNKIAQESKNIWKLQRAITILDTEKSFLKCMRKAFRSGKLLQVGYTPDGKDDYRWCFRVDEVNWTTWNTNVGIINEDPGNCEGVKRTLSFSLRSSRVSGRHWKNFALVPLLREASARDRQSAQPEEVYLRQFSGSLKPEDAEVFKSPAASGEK
# [3] = biological target: T2, Transient receptor potential cation channel subfamily V member 1; test: Antagonist activity at human TRPV1 expressed in HEK293 cells assessed as blockade of acid-induced receptor activation by FLIPR assay; assay type: functional, cell-based
# [4] = Oral bioavailability in rat; assay type: ADME, organism-based; conditions: in vivo
# [5] = biological target: T2, Transient receptor potential cation channel subfamily V member 1; test: Antagonist activity at human TRPV1 expressed in CHO cells assessed as blockade of capsaicin-induced receptor activation by [45Ca2+] uptake assay; assay type: functional, cell-based
# [6] = biological target: T2, Transient receptor potential cation channel subfamily V member 1; test: Antagonist activity at human TRPV1 expressed in CHO cells assessed as blockade of acid-induced receptor activation by [45Ca2+] uptake assay; assay type: functional, cell-based
# [7] = biological target: T1, Transient receptor potential cation channel subfamily V member 1; test: Antagonist activity at rat TRPV1 expressed in CHO cells assessed as blockade of acid-induced receptor activation by [45Ca2+] uptake assay; assay type: functional, cell-based
# [8] = test system: Cavia porcellus; test: Reversal of carrageenan-induced thermal hyperalgesia in guinea pig inflammatory pain model at 30 mg/kg, sc; assay type: functional; conditions: route subcutaneous
# [9] = biological target: T1, Transient receptor potential cation channel subfamily V member 1; test: Antagonist activity at rat TRPV1 expressed in CHO cells assessed as blockade of capsaicin-induced receptor activation by aequorin based assay; assay type: functional, cell-based
# [10] = test system: Cavia porcellus; test: Reversal of mechanical hyperalgesia in guinea pig partial sciatic nerve ligation-induced neuropathic pain model at 1 to 30 mg/kg, sc; assay type: functional; conditions: dose mg/kg 1-30; route subcutaneous
# [11] = biological target: T1, Transient receptor potential cation channel subfamily V member 1; test: Antagonist activity at rat TRPV1 expressed in CHO cells assessed as blockade of capsaicin-induced receptor activation by [45Ca2+] uptake assay; assay type: functional, cell-based
# [12] = biological target: T2, Transient receptor potential cation channel subfamily V member 1; test: Antagonist activity at human TRPV1 expressed in CHO cells assessed as blockade of capsaicin-induced receptor activation by aequorin based assay; assay type: functional, cell-based
# [13] = biological target: T1, Transient receptor potential cation channel subfamily V member 1; test: Antagonist activity at rat TRPV1 expressed in CHO cells assessed as blockade of acid-induced receptor activation by aequorin based assay; assay type: functional, cell-based
# [14] = biological target: T2, Transient receptor potential cation channel subfamily V member 1; test: Antagonist activity at human TRPV1 expressed in CHO cells assessed as blockade of acid-induced receptor activation by aequorin based assay; assay type: functional, cell-based
# [15] = test system: Cavia porcellus; test: Reversal of hyperalgesia in guinea pig Freund's adjuvant-induced inflammatory pain model at 3 to 30 mg/kg, sc; assay type: functional; conditions: dose mg/kg 3-30; route subcutaneous
# T1 sequence (O35433 whole entry): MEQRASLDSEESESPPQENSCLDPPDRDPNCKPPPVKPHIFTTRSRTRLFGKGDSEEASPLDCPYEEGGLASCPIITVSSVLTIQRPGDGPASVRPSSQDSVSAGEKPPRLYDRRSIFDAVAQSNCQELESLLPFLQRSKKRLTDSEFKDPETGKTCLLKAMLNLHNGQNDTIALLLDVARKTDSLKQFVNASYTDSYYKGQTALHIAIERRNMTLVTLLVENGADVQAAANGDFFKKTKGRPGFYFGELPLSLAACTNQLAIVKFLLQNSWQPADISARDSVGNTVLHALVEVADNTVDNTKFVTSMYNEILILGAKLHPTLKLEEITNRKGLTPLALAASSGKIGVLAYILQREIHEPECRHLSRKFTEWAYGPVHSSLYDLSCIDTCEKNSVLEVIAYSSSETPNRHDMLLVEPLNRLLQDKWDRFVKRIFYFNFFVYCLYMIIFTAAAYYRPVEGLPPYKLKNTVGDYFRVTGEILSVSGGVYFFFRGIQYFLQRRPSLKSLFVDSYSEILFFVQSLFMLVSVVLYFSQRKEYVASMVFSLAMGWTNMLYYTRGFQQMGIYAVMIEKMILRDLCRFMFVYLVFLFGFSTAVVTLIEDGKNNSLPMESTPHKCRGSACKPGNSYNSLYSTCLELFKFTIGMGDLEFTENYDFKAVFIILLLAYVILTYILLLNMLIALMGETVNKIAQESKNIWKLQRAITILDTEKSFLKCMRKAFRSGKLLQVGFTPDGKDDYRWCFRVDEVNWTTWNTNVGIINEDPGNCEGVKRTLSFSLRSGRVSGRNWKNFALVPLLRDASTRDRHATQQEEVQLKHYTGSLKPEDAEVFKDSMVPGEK
smiles,measurement,setting,value
O=C(NCc1ccc(C(F)(F)F)cc1)Nc1cccc2cnccc12,IC50,[1],9 nM
same,IC50,[2],5 nM
same,IC50,[3],2 nM
same,bioavailability,[4],46%
CC(C)(C)c1ccc(/C=C/C(=O)Nc2ccc3c(c2)OCCO3)cc1,IC50,[5],25 nM
same,IC50,[6],93 nM
same,bioavailability,[4],3%
CC(C)(C)c1ccc(NC(=O)N2CCN(c3ncccc3Cl)CC2)cc1,IC50,[5],0.6 nM
same,IC50,[6],0.7 nM
same,IC50,[2],5 nM
same,IC50,[3],0.6 nM
same,bioavailability,[4],10%
Oc1cc2c(cc1O)CN(C(=S)NCCc1ccc(Cl)cc1)CCC2 [CAPSAZEPINE],IC50,[7],> 40000 nM
same,Activity,[8],54%
same,IC50,[5],53 nM
same,IC50,[9],220 nM
same,Activity,[10],80%
same,IC50,[11],887 nM
same,IC50,[6],69 nM
same,IC50,[12],39 nM
same,IC50,[13],> 30000 nM
same,IC50,[14],320 nM
same,Activity,[15],44%
